Patent publication US8283344B2, “Method of treating inherited severe neutropenia” (Merck & Co., Inc., priority 2007, dated 2012)

Experiments:
[1] = target: T1, Human Polymorphonuclear Leukocyte Elastase (Homo sapiens, UniProt P08246); assay: Inhibition of human polymorphonuclear leukocyte elastase via hydrolysis of Boc-AAPAN or Boc-AAPVN; format: biochemical; details: second order rate constant for inactivation of the enzyme; crude human PMN extract, pH 7.5; to the nearest thousand; read-out: Kobs/[I]
T1 construct: Crude extract of human polymorphonuclear leukocytes (PMN) containing elastase activity; from tissue; host or cells: human polymorphonuclear leukocytes (crude extract)
T1 sequence (P08246 30-267): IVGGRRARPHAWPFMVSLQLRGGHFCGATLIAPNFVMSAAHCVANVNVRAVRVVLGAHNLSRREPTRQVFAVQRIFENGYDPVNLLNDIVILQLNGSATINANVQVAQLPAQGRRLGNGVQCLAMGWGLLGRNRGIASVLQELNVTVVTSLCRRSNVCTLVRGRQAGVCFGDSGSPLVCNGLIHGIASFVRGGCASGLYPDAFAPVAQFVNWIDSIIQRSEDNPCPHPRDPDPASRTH
Procedure: Enzyme Assays for the Inhibition of Human Polymorphonuclear Leukocyte Elastase Via Hydrolysis of N-t-Boc-alanyl-alanyl-prolylalanine-p-nitroanilide (Boc-AAPAN) or N-t-Boc-alanyl-[…] (Boc-AAPVN) Reagent: • 0.05M TES (N-tris[hydroxymethyl]methyl-2-mino-ethanesulfonic acid) Buffer, pH 7.5. 0.2 mM Boc-AAPAN or Boc-AAPVN.
To prepare substrate, the solid was first dissolved in 10.0 ml DMSO. Buffer at pH 7.5 was then added to a final volume of 100 ml.
Crude extract of human polymorphonuclear leukocytes (PMN) containing elastase activity.
Inhibitors (azetidinones) to be tested dissolved in DMSO just before use.
To 1.0 ml of 0.2 mM Boc-AAPAN in a cuvette, 0.01-0.1 ml of DMSO with or without inhibitor was added. After mixing, a measurement was taken at 410 mµ to detect any spontaneous hydrolysis due to presence of test compound. 0.05 Milliliters of PMN extract was then added and the ΔOD/min at 410 mµ was measured and recorded. Beckman model 35 spectrophotometer was used.
Results were expressed to the nearest thousand k obs/I which is the second order rate constant in per mole per second for inactivation of the enzyme.
The elastase activity in the crude PMN extract may vary from one preparation to another. A control of each new batch is run, and the volume added in the assay procedure is adjusted according to activity.

neutrophil elastase (NE) = target: T2, neutrophil elastase (NE) (Homo sapiens, UniProt P08246, DEL174-181); assay: NE activity in cellular SCN model (tet-off HL-60 cells expressing del.145-152 mutant NE); format: cell-based; details: human promyelocytic tet-off HL-60 cells
T2 construct: The ratio of normal-to-mutant NE products is approximately 1:1; expressed in transfected cells; host or cells: human promyelocytic tet-off HL-60 cells
T2 sequence (P08246 with tags, fused parts or gaps DEL174-181): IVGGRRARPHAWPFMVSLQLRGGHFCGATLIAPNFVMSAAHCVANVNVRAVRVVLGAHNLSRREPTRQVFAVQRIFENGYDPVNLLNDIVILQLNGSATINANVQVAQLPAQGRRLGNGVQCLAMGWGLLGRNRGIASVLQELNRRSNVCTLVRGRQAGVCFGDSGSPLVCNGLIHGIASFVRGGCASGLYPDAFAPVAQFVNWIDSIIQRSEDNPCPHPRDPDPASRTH
T2 sequence (P08246 30-267): T1 sequence (P08246 30-267)
Text: (§1) We have established a model of SCN with doxycycline-regulated expression of del.145-152 mutant NE in human promyelocytic tet-off HL-60 cells. The ratio of normal-to-mutant NE products is approximately 1:1, which is expected in SCN patients with heterozygous mutation. […] The reduced cell growth and accelerated apoptosis were also observed in response to mutNE expression. Thus, this cellular model of SCN appears to closely recapitulate the human phenotype.

[2] = tested on: HL-60 cells expressing the del.145-152 mutNE; assay: Cell growth and myeloid differentiation of HL-60 cells expressing del.145-152 mutNE; format: cell-based, human; details: HL-60 cells expressing del.145-152 mutNE treated with compound
Text: as §1

[3] = tested on: control cells expressing normal elastase; assay: Growth rate of control cells expressing normal elastase; format: cell-based, human; details: inhibition of NE activity
Text: as §1

SMILES | kinact/KI [1] [M⁻¹ s⁻¹] | also measured
CCC[C@@H](NC(=O)C1C(=O)C(CC)(CC)[C@@H]1Oc1ccc(C(=O)N2CCN(c3ccc(F)cc3)CC2)cc1)c1ccc(C)cc1 (stereo partly shown) [Compound 243] | 7.49e+06 | –
CCC[C@@H](NC(=O)C1C(=O)C(CC)(CC)[C@@H]1Oc1ccc(C(=O)N2CCNCC2)cc1)c1ccc(C)cc1 (stereo partly shown) [Compound 247] | 1.1e+06 | –
CCC[C@@H](NC(=O)C1C(=O)C(CC)(CC)[C@@H]1Oc1ccc(C(=O)N2CCN(CC)CC2)cc1)c1ccc(C)cc1 (stereo partly shown) [Compound 252] | 2.32e+06 | –
CCC[C@@H](NC(=O)C1C(=O)C(CC)(CC)[C@@H]1Oc1ccc(C(=O)N2CCN(c3ncccn3)CC2)cc1)c1ccc(C)cc1 (stereo partly shown) [Compound 254] | 2.14e+06 | –
CCC[C@@H](NC(=O)C1C(=O)C(CC)(CC)[C@@H]1Oc1ccc(C(=O)N2CCN(C(C)C)CC2)cc1)c1ccc(C)cc1 (stereo partly shown) [Compound 248] | 2.39e+06 | –
CCC[C@@H](NC(=O)C1C(=O)C(CC)(CC)[C@@H]1Oc1ccc(C(=O)N2CCN(C3CC3)CC2)cc1)c1ccc(C)cc1 (stereo partly shown) [Compound 256] | 3.59e+06 | –
CCC[C@@H](NC(=O)C1C(=O)C(CC)(CC)[C@@H]1Oc1ccc(C(=O)N2CCN(C)CC2)cc1)c1ccc(C)cc1 (stereo partly shown) [Compound 242] | 1.7e+06 | inhibition of the NE activity (neutrophil elastase (NE)): more than 80%; cell growth [2]: complete restoration of cell growth; myeloid differentiation [2]: increased myeloid differentiation; growth rate of control cells [3]: did not reduce the growth rate
CCC[C@@H](NC(=O)C1C(=O)C(CC)(CC)[C@@H]1Oc1ccc(C(=O)N2CCN(Cc3ccccc3)CC2)cc1)c1ccc(C)cc1 (stereo partly shown) [Compound 246] | 5.17e+06 | –
CCC[C@@H](NC(=O)C1C(=O)C(CC)(CC)[C@@H]1Oc1ccc(C(=O)N2CCN(c3ccccc3)CC2)cc1)c1ccc(C)cc1 (stereo partly shown) [Compound 245] | 5.28e+06 | –
CCC[C@@H](NC(=O)C1C(=O)C(CC)(CC)[C@@H]1Oc1ccc(C(=O)N2CCN(CCC)CC2)cc1)c1ccc(C)cc1 (stereo partly shown) [Compound 253] | 1.77e+06 | –
CCC[C@@H](NC(=O)C1C(=O)C(CC)(CC)[C@@H]1Oc1ccc(C(=O)N2CCN(c3cccc(Cl)c3)CC2)cc1)c1ccc(C)cc1 (stereo partly shown) [Compound 244] | 2.45e+06 | –
CCC[C@@H](NC(=O)C1C(=O)C(CC)(CC)[C@@H]1Oc1ccc(C(=O)N2CCN(CC(C)C)CC2)cc1)c1ccc(C)cc1 (stereo partly shown) [Compound 249] | 2.48e+06 | –
